US20220125745A1, “PHARMACEUTICAL COMPOSITION FOR CO-ADMINISTRATION OF ACIDOSIS-INDUCING DRUG” (HAIM BIO CO., LTD., priority 2018, published 2022)
Like-named read-outs stand apart in the source and are kept apart here.

Experiments:
[1] = system: A549 cells (cancer cells); assay: Lactate assay (luminescence) in A549 cells, candidate substance alone or combined with a substance that causes lactic acidosis; assay type: cell-based; details: A549; for activity at 50 µM: Homo sapiens, candidate 50 μM alone, 24 h, vs negative control, mean ± SEM
Procedure: (§1) To identify the effects of administration of the candidate substances for lactic acidosis treatment as described in Example 1 in combination with the above-mentioned substances that cause lactic acidosis, A549 cells (cancer cells) or L132 cells (normal cells) were respectively seeded in 96- or 24-well plates at a concentration of 1×10^4 or 3×10^5 cells/well, and incubation was performed overnight. Administration of the candidate substance for acidosis treatment in combination with the substance that causes lactic acidosis was performed and incubation was further performed for 24 hours. For the candidate substances for acidosis treatment, each substance was administered at a uniform concentration of 50 μM; and for the substances that cause lactic acidosis, metformin was administered at 1 to 100 μM, isoniazid was administered at 1 to 500 μM, berberine was administered at 10 μM, linezolid was administered at 200 μM, and phenformin was administered at 100 μM. All substances were dissolved in dimethyl sulfoxide (DMSO, Sigma-Aldrich Corporation, St. Louis, Mo., USA), and the substances to be administered in combination were administered simultaneously. Subsequently, 50 μl of the cell culture solution obtained by being diluted with Dulbecco's Phosphate-Buffered Saline (DPBS; Wellgene, Korea), and 50 μl of the lactate assay reaction buffer (Promega, Madison, Wis., USA) were mixed and the mixture was added in a 96-well plate. Reaction was allowed to proceed at room temperature for 1 hour. Then, luminescence was measured with a spectrophotometer (Synergy HTX Multi-Reader; BioTek, Winooski, Vt., USA). At the same time, the number of cells in each sample was measured with a cell viability analysis kit (Cell Counting Kit-8; Dojindo Molecular Technologies, Inc., Kumamoto, Japan), and calculation was performed so that the lactic acid measurement value in each sample could be compared with that in the negative control for the same number of cells.

[2] = system: L132 cells (normal cells); assay: Lactate assay (luminescence) in L132 cells, candidate substance alone or combined with a substance that causes lactic acidosis; assay type: cell-based; details: L132; for activity at 50 µM: Homo sapiens, candidate 50 μM alone, 24 h, vs negative control, mean ± SEM
Procedure: as §1

[3] = candidate 50 μM + berberine 10 μM, relative to berberine alone (PC)
[4] = candidate 50 μM + linezolid 200 μM, relative to linezolid alone (PC)
[5] = candidate 50 μM + phenformin 100 μM, relative to phenformin alone (PC)
[6] = no berberine, read-out: Luminescence intensity (%), Berberine (10 μM) −
[7] = no linezolid, read-out: Luminescence intensity (%), Linezolid (200 μM) −
[8] = no phenformin, read-out: Luminescence intensity (%), Phenformin (100 μM) −

Row | Compound | Lactic acid value vs. PC (%) [1, 3] [%] | Lactic acid-decreasing rate vs. PC (%) [1, 3] [%] | Lactic acid value vs. PC (%) [1, 4] [%] | Lactic acid-decreasing rate vs. PC (%) [1, 4] [%] | Lactic acid value vs. PC (%) [1, 5] [%] | Lactic acid-decreasing rate vs. PC (%) [1, 5] [%] | activity at 50 µM [1, 6] [%] | activity at 50 µM [1, 7] [%] | activity at 50 µM [1, 8] [%] | activity at 50 µM [2, 6] [%] | activity at 50 µM [2, 7] [%] | activity at 50 µM [2, 8] [%] | Lactic acid value vs. PC (%) [2, 3] [%] | Lactic acid-decreasing rate vs. PC (%) [2, 3] [%] | Lactic acid value vs. PC (%) [2, 4] [%] | Lactic acid-decreasing rate vs. PC (%) [2, 4] [%] | Lactic acid value vs. PC (%) [2, 5] [%] | Lactic acid-decreasing rate vs. PC (%) [2, 5] [%]
1 | O=C(O)c1cc(=O)c2ccccc2[nH]1 [Kynurenic acid] | 101.87 | −1.87 | 91.54 | 8.46 | 92.58 | 7.42 | 93.9 ± 1.1 | 93.9 ± 1.1 | 93.9 ± 1.1 | 93.7 ± 1.3 | 93.7 ± 1.3 | 93.7 ± 1.3 | 90.59 | 9.41 | 93.53 | 6.47 | 91.70 | 8.30
2 | O=CC(=O)c1ccccc1 [Phenylglyoxal] | 90.18 | 9.82 | 82.74 | 17.26 | 89.61 | 10.39 | 97.3 ± 1.03 | 97.3 ± 1.03 | 97.3 ± 1.03 | 93.7 ± 1.34 | 93.7 ± 1.34 | 93.7 ± 1.34 | 90.06 | 9.94 | 88.89 | 11.11 | 96.12 | 3.88
3 | CC(C)=CCCC(C)=CC=O [Citral] | 95.67 | 4.33 | 103.20 | −3.20 | 93.80 | 6.20 | 100.5 ± 0.81 | 100.5 ± 0.81 | 100.5 ± 0.81 | 102.4 ± 0.98 | 102.4 ± 0.98 | 102.4 ± 0.98 | 102.03 | −2.03 | 102.02 | −2.02 | 99.57 | 0.43
